Laboratory results from patent US20030027286A1, “Bacterial promoters and methods of use” (priority 2000, published 2003).

Tests used:
[1] = test system: Staphylococcus aureus cells expressing antisense to the β subunit of gyrase; assay: Antibiotic IC50 plus/minus xylose in Staphylococcus aureus expressing antisense to gyrase β subunit; type: cell-based; settings: antisense to gyrase β subunit under Xyl-T5; 12 mM vs 0 mM xylose; FIG. 15
Description: Sensitized cells were also used to identify the pathway in which a gene required for proliferation of Staphylococcus aureus lies. Antibiotics of various chemical classes and modes of action were purchased from chemical suppliers, for example Sigma Chemicals (St. Louis, Mo.). Stock solutions were prepared by dissolving each antibiotic in an appropriate aqueous solution based on information provided by the manufacturer. The final working solution of each antibiotic contained no more than 0.2% (w/v) of any organic solvent.
To determine its potency against a bacterial strain containing an antisense nucleic acid complementary to the sequence encoding the Beta (>) subunit of gyrase (which is required for proliferation) under the control of the Xyl-T5 fusion promoter, each antibiotic was serially diluted two or three fold in growth medium supplemented with the appropriate antibiotic for maintenance of the anti-sense construct. At least ten dilutions were prepared for each antibiotic.
Aliquots (25 μL) of each dilution were transferred to discrete wells of a 384-well microplate (the assay plate) using a multi-channel pipette. Quadruplicate wells were used for each dilution of an antibiotic under each treatment condition (plus and minus inducer). Each assay plate retained twenty wells for cell growth controls (growth media replacing antibiotic), ten wells for each treatment (plus and minus inducer, in this example xylose). Half the assay plate contained induced cells (in this example Staphylococcus aureus cells) and appropriate concentrations of inducer (in this example xylose) to maintain the state of induction while the other half of the assay plate contained non-induced cells in the absence of inducer.
Cells of a bacterial clone containing a construct in which expression of antisense complementary to the sequence encoding the β subunit of gyrase under the control of a xylose inducible promoter were grown into exponential growth (OD600 0.2 to 0.3) and then diluted 1:100 into fresh media containing either 12 mM or 0 mM inducer (xylose). These cultures were incubated at 37° C. for 2.5 hr. The presence of inducer (xylose) in the medium initiates and maintains production of antisense RNA from the antisense construct, in this case. After a 2.5 hr incubation, induced and non-induced cells were respectively diluted into an assay medium containing an appropriate concentration of the antibiotic for the maintenance of the anti-sense construct. In addition, medium used to dilute induced cells was supplemented with 24 mM xylose so that addition to the assay plate would result in a final xylose concentration of 12 mM. The cells were diluted to a final OD600 value of 0.0004.
Induced and non-induced cell suspensions were dispensed (25 :l/well) into the appropriate wells of the assay plate as discussed previously. The plate was then loaded into a plate reader and incubated at constant temperature while cell growth was monitored in each well by the measurement of light scattering at 595 nm. Growth was monitored every 5 minutes until the cell culture attained a stationary growth phase. For each concentration of antibiotic, a percentage inhibition of growth was calculated at the time point corresponding to mid-exponential growth for the associated control wells (no antibiotic, plus or minus xylose). For each antibiotic and condition (plus or minus xylose), plots of percent inhibition versus Log of antibiotic concentration were generated and IC50s determined.

[2] = test system: E. coli expressing antisense RNA; assay: Antibiotic sensitivity of E. coli sensitized by IPTG-induced antisense RNA; type: cell-based, Escherichia coli; settings: for sensitivity to antibiotic of antisense-expressing clones: initial experiments
Description: The effectiveness of the above cell-based assay was validated using constructs expressing antisense RNA to the proliferation required E. coli genes rplL, rplJ, and rplW encoding ribosomal proteins L7/L12, L10 and L23 respectively. These proteins are part of the protein synthesis apparatus of the cell and as such are required for proliferation. These constructs were used to test the effect of antisense expression on cell sensitivity to antibiotics known to bind to the ribosome and thereby inhibit protein synthesis. Constructs expressing antisense RNA to several other genes (elaD, visC, yohH, and atpE/B), the products of which are not involved in protein synthesis were used for comparison.
First, pLex5BA (Krause et al. 1997. J. Mol. Biol. 274: 365, the disclosure of which is incorporated herein by reference in its entirety) expression vectors containing antisense constructs to either rplW or to elaD were introduced into separate E. coli cell populations. Vector introduction is a technique well known to those of ordinary skill in the art. The expression vectors of this example contain IPTG inducible promoters that drive the expression of the antisense RNA in the presence of the inducer. However, those skilled in the art will appreciate that other inducible promoters may also be used. Suitable expression vectors are also well known in the art. The E. coli antisense clones to genes encoding ribosomal proteins L7/L12, L10 and L23 were used to test the effect of antisense expression on cell sensitivity to the antibiotics known to bind to these proteins. […]
The cell populations were exposed to a range of IPTG concentrations in liquid medium to obtain the growth inhibitory dose curve for each clone. First, seed cultures were grown to a particular turbidity that is measured by the optical density (OD) of the growth solution. […] The cells were grown for up to 15 hours and the extent of growth was determined by measuring the optical density of the cultures at 600 nm. […]

CO/N=C(\C(=O)N[C@@H]1C(=O)N2C(C(=O)O)=C(COC(C)=O)CS[C@H]12)c1csc(N)n1 [cefotaxime]
potency in induced cells as compared to uninduced cells [1]: not significantly different

CO[C@@]1(NC(=O)Cc2cccs2)C(=O)N2C(C(=O)O)=C(COC(N)=O)CS[C@@H]21 [cefoxitin]
potency in induced cells as compared to uninduced cells [1]: not significantly different

CC[C@H]1OC(=O)[C@H](C)[C@@H](O[C@H]2C[C@@](C)(OC)[C@@H](O)[C@H](C)O2)[C@H](C)[C@@H](O[C@@H]2O[C@H](C)C[C@H](N(C)C)[C@H]2O)[C@](C)(O)C[C@@H](C)C(=O)[C@H](C)[C@@H](O)[C@]1(C)O [erythromycin]
sensitivity to antibiotic of antisense-expressing clones ([2]; clones antisense to non-protein synthesis genes elaD, atpB/E and visC): do not
sensitivity to antibiotic of antisense-expressing clones ([2]; clones antisense to protein synthesis genes (L7/L12 & L10, L7/L12 alone, L22, L18, rRNA, Elongation Factor G)): increased sensitivity

CC(=O)O[C@H]1C[C@@]2(C)[C@@H](C[C@@H](O)[C@H]3[C@@]4(C)CC[C@@H](O)[C@@H](C)[C@@H]4CC[C@@]32C)/C1=C(\CCC=C(C)C)C(=O)O [fusidic acid]
potency in induced cells as compared to uninduced cells [1]: not significantly different

CCC[C@@H]1C[C@@H](C(=O)N[C@@H]([C@H]2O[C@H](SC)[C@H](O)[C@@H](O)[C@H]2O)[C@@H](C)O)N(C)C1 [lincomycin]
potency in induced cells as compared to uninduced cells [1]: not significantly different

CCn1cc(C(=O)O)c(=O)c2ccc(C)nc21 [nalidixic acid]
sensitivity to antibiotic of antisense-induced cells ([2]; E. coli expressing antisense to rplL and rplJ (reduced L7/L12), IPTG): does not show increased sensitivity

CO[C@@H]1[C@@H](OC(N)=O)[C@@H](O)[C@H](Oc2ccc3c(O)c(NC(=O)c4ccc(O)c(CC=C(C)C)c4)c(=O)oc3c2C)OC1(C)C [novobiocin]
potency in induced cells as compared to uninduced cells [1]: significantly different

NC[C@H]1O[C@H](O[C@H]2[C@H](O)[C@@H](O[C@H]3O[C@H](CO)[C@@H](O)[C@H](N)[C@H]3O)[C@H](N)C[C@@H]2N)[C@H](N)C[C@@H]1O [tobramycin]
potency in induced cells as compared to uninduced cells [1]: not significantly different

COc1cc(Cc2cnc(N)nc2N)cc(OC)c1OC [trimethoprim]
potency in induced cells as compared to uninduced cells [1]: not significantly different

CN[C@H](CC(C)C)C(=O)N[C@H]1C(=O)N[C@@H](CC(N)=O)C(=O)N[C@H]2C(=O)N[C@H]3C(=O)N[C@H](C(=O)N[C@H](C(=O)O)c4cc(O)cc(O)c4-c4cc3ccc4O)[C@H](O)c3ccc(c(Cl)c3)Oc3cc2cc(c3O[C@@H]2O[C@H](CO)[C@@H](O)[C@H](O)[C@H]2O[C@H]2C[C@](C)(N)[C@H](O)[C@H](C)O2)Oc2ccc(cc2Cl)[C@H]1O [vancomycin]
potency in induced cells as compared to uninduced cells [1]: not significantly different
